Among the data in patent US9777020B2, “Furo-3-carboxamide derivatives and methods of use” (AbbVie Inc., priority 2014, dated 2017) are IC50 values, retold here.

In this test the target is TrkA (Homo sapiens (Human), UniProt P04629). In words: TrkA kinase HTRF enzyme inhibition assay. To be noted: TrkA pre-incubated with 200 μM ATP. It is filed as biochemical. The gist of the method: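 HTRF ratio read-out of biotin-peptide (125 nM) phosphorylation, 1 h reaction after TrkA (2-10 nM) auto-activation with ATP (200 μM) for 20 min and 10 min compound pre-incubation in 50 mM HEPES pH 7.4 with MgCl2/MnCl2. Percent inhibition from initial rates in duplicate, fitted to single-site equation for IC50.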
Sequence of TrkA (P04629 33-796): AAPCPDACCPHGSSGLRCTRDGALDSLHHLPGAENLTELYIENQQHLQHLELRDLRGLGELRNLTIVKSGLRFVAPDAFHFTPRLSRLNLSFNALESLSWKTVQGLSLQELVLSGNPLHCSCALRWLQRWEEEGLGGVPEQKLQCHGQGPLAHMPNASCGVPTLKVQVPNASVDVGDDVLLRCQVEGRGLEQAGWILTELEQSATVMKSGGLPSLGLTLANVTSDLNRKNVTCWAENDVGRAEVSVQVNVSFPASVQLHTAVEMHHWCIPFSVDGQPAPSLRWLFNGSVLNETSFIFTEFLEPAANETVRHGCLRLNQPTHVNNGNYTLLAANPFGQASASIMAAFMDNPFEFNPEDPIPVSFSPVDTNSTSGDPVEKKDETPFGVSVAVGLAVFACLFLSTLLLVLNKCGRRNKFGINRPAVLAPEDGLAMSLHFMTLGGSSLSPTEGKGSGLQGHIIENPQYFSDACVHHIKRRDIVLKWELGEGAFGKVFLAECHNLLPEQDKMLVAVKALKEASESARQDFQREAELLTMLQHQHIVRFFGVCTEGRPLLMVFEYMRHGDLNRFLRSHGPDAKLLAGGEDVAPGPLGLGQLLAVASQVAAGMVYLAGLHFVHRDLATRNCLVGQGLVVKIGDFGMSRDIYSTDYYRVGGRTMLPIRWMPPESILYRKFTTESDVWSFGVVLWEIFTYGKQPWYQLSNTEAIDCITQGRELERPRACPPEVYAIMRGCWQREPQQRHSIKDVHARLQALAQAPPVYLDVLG

In general, IC50 refers to the concentration at which inhibition is half-maximal. Lower therefore signals greater potency in that assay. `CN1CCN(c2ccc(NC(=O)c3coc4c3C(=O)NCCC4)c(Oc3ccc(CO)cc3)n2)CC1` [Example 83, N-{2-[4-(hydroxymethyl)phenoxy]-6-(4-methylpiperazin-1-yl)pyridin-3-yl}-4-oxo-5,6,7,8-tetrahydro-4H-furo[3,2-c]azepine-3-carboxamide] had an IC50 of 496 nM. `CCOc1nc(N2CCN(C(C)=O)CC2)ccc1NC(=O)c1coc2c1C(=O)N(CCOC)CC2` [Example 84, N-[6-(4-acetylpiperazin-1-yl)-2-ethoxypyridin-3-yl]-5-(2-methoxyethyl)-4-oxo-4,5,6,7-tetrahydrofuro[3,2-c]pyridine-3-carboxamide]: the IC50 was 5.3 nM. With `COCCOc1nc(N2CCN(C(C)=O)CC2)ccc1NC(=O)c1coc2c1C(=O)N(CCOCc1ccccc1)CC2` [Example 85, N-[6-(4-acetylpiperazin-1-yl)-2-(2-methoxyethoxyl)pyridin-3-yl]-5-[2-(benzyloxy)ethyl]-4-oxo-4,5,6,7-tetrahydrofuro[3,2-c]pyridine-3-carboxamide], the IC50 was 266 nM.

As for `CC(=O)N1CCN(c2ccc(NC(=O)c3coc4c3C(=O)N(CCOCc3ccccc3)CC4)c(OCCOCc3ccccc3)n2)CC1` [Example 86, N-{6-(4-acetylpiperazin-1-yl)-2-[2-(benzyloxy)ethoxy]pyridin-3-yl}-5-[2-(benzyloxy)ethyl]-4-oxo-4,5,6,7-tetrahydrofuro[3,2-c]pyridine-3-carboxamide], inhibition was half-maximal at 1320 nM (IC50).

For the compound `COCCOc1nc(N2CCN(C(C)=O)CC2)ccc1NC(=O)c1coc2c1C(=O)N(CCO)CC2` [Example 87, N-[6-(4-acetylpiperazin-1-yl)-2-(2-methoxyethoxyl)pyridin-3-yl]-5-(2-hydroxyethyl)-4-oxo-4,5,6,7-tetrahydrofuro[3,2-c]pyridine-3-carboxamide], inhibition was half-maximal at 224 nM (IC50). The compound `CC(=O)N1CCN(c2ccc(NC(=O)c3coc4c3C(=O)N(CCO)CC4)c(OCCO)n2)CC1` [Example 88, N-[6-(4-acetylpiperazin-1-yl)-2-(2-hydroxyethoxyl)pyridin-3-yl]-5-(2-hydroxyethyl)-4-oxo-4,5,6,7-tetrahydrofuro[3,2-c]pyridine-3-carboxamide] registered an IC50 of 95 nM. As to `CCOc1nc(N2CCN(C(C)=O)CC2)ccc1NC(=O)c1coc2c1C(=O)N(CCCO)CC2` [Example 89, N-[6-(4-acetylpiperazin-1-yl)-2-ethoxypyridin-3-yl]-5-(3-hydroxypropyl)-4-oxo-4,5,6,7-tetrahydrofuro[3,2-c]pyridine-3-carboxamide], it took 4.7 nM to reach half-maximal inhibition (IC50).

In the case of `CCOc1nc(N2CCN(C(C)=O)CC2)ccc1NC(=O)c1coc2c1C(=O)N(CCCCO)CC2` [Example 90, N-[6-(4-acetylpiperazin-1-yl)-2-ethoxypyridin-3-yl]-5-(4-hydroxybutyl)-4-oxo-4,5,6,7-tetrahydrofuro[3,2-c]pyridine-3-carboxamide], the midpoint of inhibition, the IC50, lay at 4.7 nM.

In turn, `CCOc1nc(N2CCN(C(C)=O)CC2)ccc1NC(=O)c1coc2c1C(=O)N(CCOCCO)CC2` [Example 91, N-[6-(4-acetylpiperazin-1-yl)-2-ethoxypyridin-3-yl]-5-[2-(2-hydroxyethoxyl)ethyl]-4-oxo-4,5,6,7-tetrahydrofuro[3,2-c]pyridine-3-carboxamide] returned an IC50 of 7 nM. In turn, `CCOc1nc(N2CCN(C(=O)OC(C)(C)C)CC2)ccc1NC(=O)c1coc2c1C(=O)NCC2` [Example 92, tert-butyl 4-(6-ethoxy-5-{[(4-oxo-4,5,6,7-tetrahydrofuro[3,2-c]pyridin-3-yl)carbonyl]amino}pyridin-2-yl)piperazine-1-carboxylate] came in with an IC50 of 18.2 nM. For the compound `CCOc1nc(N2CCN(C(=NC#N)NC)CC2)ccc1NC(=O)c1coc2c1C(=O)NCC2` [Example 93, N-{6-[4-(N′-cyano-N-methylcarbamimidoyl)piperazin-1-yl]-2-ethoxypyridin-3-yl}-4-oxo-4,5,6,7-tetrahydrofuro[3,2-c]pyridine-3-carboxamide], half-maximal inhibition (IC50) required 16.3 nM. Consider `CCOc1nc(N2CCN(C(C)=O)CC2)ccc1NC(=O)c1coc2c1C(=O)N(C[C@@H](C)OC(C)=O)CC2` [Example 94, (2R)-1-[3-{[6-(4-acetylpiperazin-1-yl)-2-ethoxypyridin-3-yl]carbamoyl}-4-oxo-6,7-dihydrofuro[3,2-c]pyridin-5(4H)-yl]propan-2-yl acetate], for which the IC50 stood at 1.5 nM.

As for `CCOc1nc(N2CCN(C(C)=O)CC2)ccc1NC(=O)c1coc2c1C(=O)N(C[C@@H](C)O)CC2` [Example 95, N-[6-(4-acetylpiperazin-1-yl)-2-ethoxypyridin-3-yl]-5-[(2R)-2-hydroxypropyl]-4-oxo-4,5,6,7-tetrahydrofuro[3,2-c]pyridine-3-carboxamide], the IC50 was determined as 4.3 nM.

Turning to `CCOc1nc(N2CCN(C(C)=O)CC2)ccc1NC(=O)c1coc2c1C(=O)N(C[C@H](C)OC(C)=O)CC2` [Example 96, (2S)-1-[3-{[6-(4-acetylpiperazin-1-yl)-2-ethoxypyridin-3-yl]carbamoyl}-4-oxo-6,7-dihydrofuro[3,2-c]pyridin-5(4H)-yl]propan-2-yl acetate], the IC50 stood at 6.7 nM. In the case of `CCOc1nc(N2CCN(C(C)=O)CC2)ccc1NC(=O)c1coc2c1C(=O)N(C[C@H](C)O)CC2` [Example 97, N-[6-(4-acetylpiperazin-1-yl)-2-ethoxypyridin-3-yl]-5-[(2S)-2-hydroxypropyl]-4-oxo-4,5,6,7-tetrahydrofuro[3,2-c]pyridine-3-carboxamide], the IC50 is 4.8 nM. `CCOc1nc(N2CCN(C(C)=O)CC2)ccc1NC(=O)c1coc2c1C(=O)N([C@H](C)COC(C)=O)CC2` [Example 98, (2R)-2-[3-{[6-(4-acetylpiperazin-1-yl)-2-ethoxypyridin-3-yl]carbamoyl}-4-oxo-6,7-dihydrofuro[3,2-c]pyridin-5(4H)-yl]propyl acetate] registered a half-inhibitory concentration (IC50) of 1.5 nM. With `CCOc1nc(N2CCN(C(C)=O)CC2)ccc1NC(=O)c1coc2c1C(=O)N([C@H](C)CO)CC2` [Example 99, N-[6-(4-acetylpiperazin-1-yl)-2-ethoxypyridin-3-yl]-5-[(2R)-1-hydroxypropan-2-yl]-4-oxo-4,5,6,7-tetrahydrofuro[3,2-c]pyridine-3-carboxamide], the IC50 came out at 3.3 nM.

In turn, `CCOc1nc(N2CCN(C(C)=O)CC2)ccc1NC(=O)c1coc2c1C(=O)N([C@@H](C)COC(C)=O)CC2` [Example 100, (2S)-2-[3-{[6-(4-acetylpiperazin-1-yl)-2-ethoxypyridin-3-yl]carbamoyl}-4-oxo-6,7-dihydrofuro[3,2-c]pyridin-5(4H)-yl]propyl acetate] gave an IC50 of 23.5 nM. Take `CCOc1nc(N2CCN(C(C)=O)CC2)ccc1NC(=O)c1coc2c1C(=O)N([C@@H](C)CO)CC2` [Example 101, N-[6-(4-acetylpiperazin-1-yl)-2-ethoxypyridin-3-yl]-5-[(2S)-1-hydroxypropan-2-yl]-4-oxo-4,5,6,7-tetrahydrofuro[3,2-c]pyridine-3-carboxamide]: the IC50 is 19.5 nM. In turn, `CCOc1nc(N2CCN(C(C)=O)CC2)ccc1NC(=O)c1coc2c1C(=O)N(C(C)(C)CO)CC2` [Example 102, N-[6-(4-acetylpiperazin-1-yl)-2-ethoxypyridin-3-yl]-5-(1-hydroxy-2-methylpropan-2-yl)-4-oxo-4,5,6,7-tetrahydrofuro[3,2-c]pyridine-3-carboxamide] came in with an IC50 of 12.7 nM. `CCOc1nc(N2CCN(C(C)=O)CC2)ccc1NC(=O)c1coc2c1C(=O)N(CC(C)(C)OC(C)=O)CC2` [Example 103, 1-[3-{[6-(4-acetylpiperazin-1-yl)-2-ethoxypyridin-3-yl]carbamoyl}-4-oxo-6,7-dihydrofuro[3,2-c]pyridin-5(4H)-yl]-2-methylpropan-2-yl acetate] displayed an IC50 of 16.9 nM. As for `CCOc1nc(N2CCN(C(C)=O)CC2)ccc1NC(=O)c1coc2c1C(=O)N(CC(C)(C)O)CC2` [Example 104, N-[6-(4-acetylpiperazin-1-yl)-2-ethoxypyridin-3-yl]-5-(2-hydroxy-2-methylpropyl)-4-oxo-4,5,6,7-tetrahydrofuro[3,2-c]pyridine-3-carboxamide], the figure is 6 nM. In the case of `CC(=O)N1CCN(c2ccc(NC(=O)c3coc4c3C(=O)NCC4)c(O[C@H]3CCOC3)n2)CC1` [Example 105, N-{6-(4-acetylpiperazin-1-yl)-2-[(3S)-tetrahydrofuran-3-yloxy]pyridin-3-yl}-4-oxo-4,5,6,7-tetrahydrofuro[3,2-c]pyridine-3-carboxamide], the IC50 came out at 23.5 nM.

Consider `CC(C)(O)COc1nc(N2CCOCC2)ccc1NC(=O)c1coc2c1C(=O)NCC2` [Example 107, N-[2-(2-hydroxy-2-methylpropoxy)-6-(morpholin-4-yl)pyridin-3-yl]-4-oxo-4,5,6,7-tetrahydrofuro[3,2-c]pyridine-3-carboxamide], for which the IC50 stood at 6.9 nM.

Consider `CCOc1nc(CC(=O)OC)ccc1NC(=O)c1coc2c1C(=O)NCC2` [Example 108, methyl(6-ethoxy-5-{[(4-oxo-4,5,6,7-tetrahydrofuro[3,2-c]pyridin-3-yl)carbonyl]amino}pyridin-2-yl)acetate], for which inhibition was half-maximal at 226 nM (IC50).

Turning to `CCOc1nc(CCO)ccc1NC(=O)c1coc2c1C(=O)NCC2` [Example 109, N-[2-ethoxy-6-(2-hydroxyethyl)pyridin-3-yl]-4-oxo-4,5,6,7-tetrahydrofuro[3,2-c]pyridine-3-carboxamide], the IC50 turned out to be 225 nM. Take `COc1nc(N2CCN(C(C)=O)CC2)ccc1NC(=O)c1coc2c1C(=O)CC1(CCOCC1)C2` [Example 110, N-[6-(4-acetylpiperazin-1-yl)-2-methoxypyridin-3-yl]-4-oxo-2′,3′,4,5′,6′,7-hexahydro-5H-spiro[1-benzofuran-6,4′-pyran]-3-carboxamide]: half-maximal inhibition (IC50) required 39.2 nM.

In the case of `CCOc1nc(N2CCN(C(C)=O)CC2)ccc1NC(=O)c1coc2c1C(=O)NC1(CCC1)C2` [Example 111, N-[6-(4-acetylpiperazin-1-yl)-2-ethoxypyridin-3-yl]-4′-oxo-4′,7′-dihydro-5′H-spiro[cyclobutane-1,6′-furo[3,2-c]pyridine]-3′-carboxamide], the half-inhibitory concentration (IC50) is 3.9 nM.
